In PubChem BioAssay (NCI):
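Method: 48-hour compound exposure of cells in 96-well plates, five concentrations, linear interpolation of endpoints. GI50: concentration for 50% inhibition of growth. TGI is the concentration that stops growth completely.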

How the values were obtained:
Assay in all cases: NCI anticancer screen, dose series, 48 h
U251 CNS = tested on: U251 CNS
A549 NSCLC = tested on: A549 NSCLC
ACHN renal = tested on: ACHN renal
EKVX NSCLC = tested on: EKVX NSCLC
SR leukemia = tested on: SR leukemia
OVCAR-4 ovarian = tested on: OVCAR-4 ovarian
SK-OV-3 ovarian = tested on: SK-OV-3 ovarian
T-47D breast = tested on: T-47D breast
HOP-62 NSCLC = tested on: HOP-62 NSCLC

| SMILES | GI50 (U251 CNS) [µM] | TGI (U251 CNS) [µM] | GI50 (A549 NSCLC) [µM] | TGI (A549 NSCLC) [µM] | GI50 (ACHN renal) [µM] | TGI (ACHN renal) [µM] | TGI (EKVX NSCLC) [µM] | TGI (SR leukemia) [µM] | TGI (OVCAR-4 ovarian) [µM] | TGI (SK-OV-3 ovarian) [µM] | TGI (T-47D breast) [µM] | TGI (HOP-62 NSCLC) [µM] | GI50 (EKVX NSCLC) [µM] | GI50 (SR leukemia) [µM] | GI50 (OVCAR-4 ovarian) [µM] | GI50 (T-47D breast) [µM] | GI50 (HOP-62 NSCLC) [µM] | GI50 (SK-OV-3 ovarian) [µM] |
| --- | --- | --- | --- | --- | --- | --- | --- | --- | --- | --- | --- | --- | --- | --- | --- | --- | --- | --- |
| Cc1nc2ccccc2c(/C=C/c2ccc(Cl)cc2)c1C(=O)/C=C/c1ccccc1 | 1.61 | 3.07 | 2.24 | 6.54 | 1.53 | 2.86 |  |  |  |  |  |  |  |  |  |  |  |  |
| CC1(C)N=C(c2ccccn2)C(c2ccccn2)=NC1(C)C |  | > 100 |  | > 100 |  | > 100 | > 100 | > 100 | > 100 |  |  |  |  |  |  |  |  |  |
| CCOC(=O)C(NC(=O)OC(C)(C)C)C(=O)OCC |  | > 100 |  | > 100 |  | > 100 | > 100 | > 100 | > 100 | > 100 | > 100 | > 100 |  |  |  |  |  |  |
| CCCCNC(=O)/N=C/c1c(O)c2ccccc2oc1=O |  |  |  | > 100 |  | > 100 | > 100 | > 100 | > 100 |  |  | > 100 |  |  |  |  |  |  |
| O=c1oc2ccccc2c(O)c1C(C/C(CCN1CCCC1)=N\Nc1ccccc1)c1ccccc1 (stereo not drawn) |  | > 100 |  | > 100 |  | > 100 | > 100 | 75.1 | > 100 | > 100 |  | > 100 |  |  |  |  |  |  |
| Oc1ccc(Cl)cc1C1=NC(/N=C\c2ccccc2)=NC(c2ccccc2)C1 (stereo not drawn) |  | > 100 |  | > 100 |  |  | > 100 | 45 |  | 74.7 | > 100 | > 100 |  |  |  |  |  |  |
| COc1ccc(Sc2ccccc2N)cc1 |  | 49.8 |  | > 100 |  | > 100 | > 100 | > 100 | > 100 | > 100 |  | > 100 |  |  |  |  |  |  |
| O=C1NCCS(=O)(=O)N2CCC[C@@H]12 |  | > 100 |  | > 100 |  | > 100 | > 100 | > 100 | > 100 | > 100 |  | > 100 |  |  |  |  |  |  |
| Cc1ccc(CCC(=O)C(=O)O)s1 |  | > 100 |  | > 100 |  | > 100 | > 100 | > 100 | > 100 | > 100 |  | > 100 |  |  |  |  |  |  |
| COc1ccc2c(c1)OC[C@@H]1c3cc(O)c(OCc4ccccc4)cc3O[C@H]21 |  | 68.4 |  | 97.1 |  | > 100 | 60.1 |  | 60.3 | > 100 |  | > 100 |  |  |  |  |  |  |
| COc1ccc(-c2nn(-c3ccc(NC(=O)Nc4ccc(Cl)c(C(F)(F)F)c4)cc3)cc2-c2ccncc2)cc1Cl | 0.928 | 2.59 | 1.2 | > 100 | 1.6 | 5.27 | 14.4 | 5.96 | 21.9 |  | 7.73 | 4.45 | 1.83 | 1.86 | 1.98 | 2.72 | 1.81 |  |
| CC1=NN(c2nc(N)nc(CF)n2)C(C)(C)C1 |  | > 100 |  |  |  | > 100 | > 100 | > 100 | > 100 | > 100 | > 100 | > 100 |  |  |  |  |  |  |
| Fc1cc(-c2cc(-c3ccc4c(c3)OCO4)n[nH]2)c(Cl)cc1Cl |  | 3.63 |  | 7.86 |  | 3.86 | 5.17 | > 50.1 | 4.49 | 5.44 | 7.79 | 5.81 |  |  |  |  |  |  |
| Cc1ccc(NC(=O)CSC(N)=O)cc1C |  | > 100 |  | > 100 |  | > 100 | > 100 | > 100 | > 100 |  | > 100 | > 100 |  |  |  |  |  |  |
| CCCC(=O)[O-].N.N.N.N.N.[Co+3].[O-][Cl+3]([O-])([O-])[O-] |  | > 100 |  | > 100 |  | > 100 | > 100 |  | > 100 | > 100 |  | > 100 |  |  |  |  |  |  |
| COC(=O)C1=C(C(=O)OC)SC2(S1)C(C(=O)OC)=C(C(=O)OC)Sc1c2ssc1=NC(C)(C)C |  | 3.54 |  | 8.69 |  | 3.35 | 3.36 | 1.91 | 3.32 | 18.1 |  | 15.5 |  |  |  |  |  |  |
| O=c1ccc2nc(-c3ccccn3)nn(-c3ccccc3)c-2c1 | 3.7 | 14.2 | 18.4 | 42.3 | 1.59 | 2.99 | 20 | > 100 | 3.04 | 24.1 |  | 44.3 | 6.25 | 2.31 | 1.56 |  | 3.76 | 11.1 |
| COC(=O)C(NC(=O)c1ccccc1)C(c1ccc(Cl)cc1)P(=O)(OC)OC (stereo not drawn) |  | > 100 |  | > 100 |  | > 100 | > 100 | > 100 | > 100 | > 100 |  | > 100 |  |  |  |  |  |  |
| COC1OC2=CCC3C(=O)NC(=O)C3C2[C@H](OCc2ccccc2)C1OCc1ccccc1 (stereo partly drawn) |  | 33.3 |  | 40.1 |  | 34.8 | 3.39 |  | 5.32 | 30.8 |  | 31.7 |  |  |  |  |  |  |
| O=C(N/N=C/c1cc(Br)cc(Br)c1[O-])c1ccccc1O.O=C(N/N=C/c1cc(Br)cc(Br)c1[O-])c1ccccc1O.[Ni+2] |  | 1.84 |  | 2.33 |  | 1.53 | 2.97 | 1.65 | 0.825 | 1.95 |  | 1.82 |  |  |  |  |  |  |
